Reference: PMC8566969, “Comparison of viral RNA–host protein interactomes across pathogenic RNA viruses informs rapid antiviral drug discovery for SARS-CoV-2” (Cell Research, 2021)
pIC50, pKd, pKi: −log10 of the molar value. “Also recorded” adds a separate entry of the source.

Tests used:
[1] = tested on: SARS-CoV-2 (IPBCAMS-YL01/2020); experiment: Antiviral assay, bona fide SARS-CoV-2 in Huh7.5.1 cells; assay type: cell-based; details: IPBCAMS-YL01/2020, human liver Huh7.5.1 cells
[2] = target: T1, HSP90AB1 (Homo sapiens, UniProt P08238); experiment: biochemical; assay type: binding
T1 construct: HSP90AB1 protein was detected using a specific antibody after the A549 cells were treated with Cepharanthine; endogenous in cells; host or cells: A549

[3] = target: T1, HSP90AB1; assay type: cell-based
[4] = tested on: SARS-CoV-2 (IPBCAMS-YL01/2020); design: species or system hACE2 transgenic mice; details: mouse, in vivo
[5] = tested on: EBOVΔVP30-GFP virus (strain Zaire Mayinga)
[6] = tested on: SARS-CoV-2; design: method as in PMID 32707573; details: at 2.5 μM; cited from earlier work
[7] = tested on: SARS-CoV-2 virus entry; details: read-out: IC50, antiviral activity in virus entry inhibitor screen; cited from earlier work
[8] = tested on: SARS-CoV-2 (IPBCAMS-YL01/2020); experiment: in vitro; details: human
[9] = tested on: SARS-CoV-2 (IPBCAMS-YL01/2020); experiment: microbe, parasite or virus in culture; details: Severe acute respiratory syndrome coronavirus 2, A549-ACE2, 48 h, read-out: IC50 (half maximal inhibitory concentration), SARS-CoV-2 IPBCAMS-YL01/2020
[10] = tested on: EBOVΔVP30-GFP virus (strain Zaire Mayinga); experiment: microbe, parasite or virus in culture; details: Zaire ebolavirus, 72 h, read-out: IC50, EBOVΔVP30-GFP
[11] = Cell viability assay (CellTiter-Glo), Huh7 cells; details: human
[12] = Solubility in water (statement in formulation method)
[13] = tested on: ZIKV (MR766); experiment: Antiviral assay, ZIKV in Huh7 cells (4G2 immunostaining, high-content imaging); details: for SI (CC50/IC50), ZIKV: Huh7 cells; for pIC50: Zika virus, Huh-7, 72 h, read-out: IC50, ZIKV
[14] = in vitro; details: human
[15] = in vitro; details: human; remark: listed apart in the source
[16] = target: (GGCT); design: method as in IUPHAR/BPS Guide to PHARMACOLOGY, pubmed_id 17260973; details: assay_description: pKa= 9.71, ref IUPHAR/BPS Guide to PHARMACOLOGY, pubmed_id 17260973, cited from earlier work
[17] = target: TUBB (Homo sapiens, UniProt P07437); experiment: Cellular thermal shift assay (CETSA) in A549 cells, TUBB; assay type: cell-based
[18] = tested on: TUBB cytoskeletal networks; experiment: Immunofluorescence of the TUBB-containing cytoskeleton in Caco-2 cells; assay type: cell-based, human; details: 0.5 µM, 6 h
[19] = tested on: SARS-CoV-2 RNA interacting human proteins; design: ACT_VALUE, ACT_TYPE ID50: unit not given here; details: cited from earlier work
[20] = tested on: heat shock protein 90 alpha family class B member 1 (HSP90AB1); design: method as in earlier work; details: ref IUPHAR/BPS Guide to PHARMACOLOGY (geldanamycin pubmed_id 24984936), cited from earlier work; for pIC50: read-out: original_affinity_median_nm (IC50)
[21] = target: aldehyde dehydrogenase 2 family member (ALDH2); design: method as in IUPHAR/BPS Guide to PHARMACOLOGY, pubmed_id 18613661; details: In vitro inhibition of recombinant human mitochondrial aldehyde dehydrogenase, ref IUPHAR/BPS Guide to PHARMACOLOGY, pubmed_id 18613661, cited from earlier work
[22] = tested on: isocitrate dehydrogenase (NADP(+)) 2 (IDH2); design: method as in IUPHAR/BPS Guide to PHARMACOLOGY, pubmed_id 32071674; details: ref IUPHAR/BPS Guide to PHARMACOLOGY, pubmed_id 32071674; cited from earlier work
[23] = read-out: original_affinity_median_nm (Ki)

T1 sequence (P08238 whole entry): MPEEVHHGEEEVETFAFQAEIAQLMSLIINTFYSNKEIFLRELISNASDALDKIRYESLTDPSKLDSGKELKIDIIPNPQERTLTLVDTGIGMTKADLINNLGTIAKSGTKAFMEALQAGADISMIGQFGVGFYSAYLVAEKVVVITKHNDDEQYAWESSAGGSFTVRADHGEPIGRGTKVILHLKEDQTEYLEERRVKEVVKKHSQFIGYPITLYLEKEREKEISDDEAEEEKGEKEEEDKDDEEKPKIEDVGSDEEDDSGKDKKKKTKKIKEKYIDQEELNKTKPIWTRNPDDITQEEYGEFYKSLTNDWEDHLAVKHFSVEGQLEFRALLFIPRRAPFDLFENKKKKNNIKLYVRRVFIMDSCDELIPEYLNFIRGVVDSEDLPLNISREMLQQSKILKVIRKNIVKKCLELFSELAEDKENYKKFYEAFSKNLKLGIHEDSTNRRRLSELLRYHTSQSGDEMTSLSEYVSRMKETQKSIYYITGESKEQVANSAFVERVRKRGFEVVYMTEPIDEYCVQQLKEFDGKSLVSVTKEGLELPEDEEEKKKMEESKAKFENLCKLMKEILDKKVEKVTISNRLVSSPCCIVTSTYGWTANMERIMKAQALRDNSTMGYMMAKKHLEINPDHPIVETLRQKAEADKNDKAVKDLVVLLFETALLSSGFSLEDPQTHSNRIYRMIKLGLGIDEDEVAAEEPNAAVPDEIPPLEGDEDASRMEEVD
TUBB, sequence (P07437 whole entry): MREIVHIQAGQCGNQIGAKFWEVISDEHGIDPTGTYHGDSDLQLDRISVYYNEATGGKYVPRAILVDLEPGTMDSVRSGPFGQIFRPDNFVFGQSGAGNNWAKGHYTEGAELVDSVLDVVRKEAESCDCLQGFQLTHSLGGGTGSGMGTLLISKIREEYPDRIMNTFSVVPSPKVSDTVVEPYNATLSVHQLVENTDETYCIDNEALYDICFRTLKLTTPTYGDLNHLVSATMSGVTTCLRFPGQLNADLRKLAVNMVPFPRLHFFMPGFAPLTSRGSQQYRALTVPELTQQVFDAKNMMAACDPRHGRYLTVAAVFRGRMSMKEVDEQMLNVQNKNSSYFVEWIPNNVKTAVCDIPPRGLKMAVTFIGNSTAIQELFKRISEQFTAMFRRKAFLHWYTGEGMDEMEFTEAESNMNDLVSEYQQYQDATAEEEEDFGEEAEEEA
TUBB, sequence (P68363 whole entry, further chain): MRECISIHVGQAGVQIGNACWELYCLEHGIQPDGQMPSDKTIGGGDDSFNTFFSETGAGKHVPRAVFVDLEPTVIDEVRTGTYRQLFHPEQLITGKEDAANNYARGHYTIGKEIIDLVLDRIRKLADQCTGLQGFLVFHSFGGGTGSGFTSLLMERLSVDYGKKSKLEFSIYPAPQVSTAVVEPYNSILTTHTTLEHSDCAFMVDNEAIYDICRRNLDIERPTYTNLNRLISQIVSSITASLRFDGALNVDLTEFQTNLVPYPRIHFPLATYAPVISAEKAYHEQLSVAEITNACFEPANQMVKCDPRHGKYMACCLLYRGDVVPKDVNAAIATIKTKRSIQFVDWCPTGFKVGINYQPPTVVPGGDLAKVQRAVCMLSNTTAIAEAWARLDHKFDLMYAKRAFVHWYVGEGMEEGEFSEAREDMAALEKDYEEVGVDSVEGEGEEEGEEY

## COc1ccc2cc1Oc1ccc(cc1)C[C@H]1c3c(cc4c(c3Oc3cc5c(cc3OC)CCN(C)[C@@H]5C2)OCO4)CCN1C [Cepharanthine]
[1]
  Antiviral effect against SARS-CoV-2 in Huh7.5.1 cells (in words): confirmed
[2]
  pKd: 5.46
[3]
  CETSA target engagement, HSP90AB1: targeted HSP90AB1; also recorded: bound to HSP90AB1 in cells
[4]
  Viral loads in the lungs vs vehicle group at 3 dpi (qPCR): no obvious differences
  Viral loads in the lungs vs vehicle group at 5 dpi (qPCR): significant reduction
[4]; 10 mg/kg
  Expression level of IL6 in lung vs vehicle group: reduced
  Expression level of TNF in lung vs vehicle group: reduced
  Lung injury and inflammation (H&E staining): the extent of damage was much relieved in lung tissue
[5]
  SI (CC50/IC50), EBOVΔVP30-GFP: 12.10
[6]
  inhibition ratio: > 40%
[7]
  pIC50: 5.85
[8]
  selectivity ratio: 18.5
[9]
  pIC50: 5.78
[10]
  pIC50: 6.38
[11]
  CC50 at 72 h: 24000 nM
[12]
  Solubility in water: insoluble in water
[13]
  SI (CC50/IC50), ZIKV: 10.97
  pIC50: 5.66

## COc1cc2c(cc1OC)[C@@H]1C(=O)c3ccc4c(c3O[C@@H]1CO2)C=CC(C)(C)O4 [Deguelin]
[14]
  CC50: 34700 nM

## CC(C)(O)CNc1nc(Nc2ccnc(C(F)(F)F)c2)nc(-c2cccc(C(F)(F)F)n2)n1 [Enasidenib, 2-Methyl-1-(4-(6-(trifluoromethyl)pyridin-2-yl)-6-(2-(trifluoromethyl)pyridin-4-ylamino)-1,3,5-triazin-2-ylamino)propan-2-ol]
[8]
  selectivity ratio: 1.17
[15]
  CC50: 24900 nM
[9]
  pIC50: 4.55
[13]
  pIC50: 4.87

## COP(=O)(CCC(N)C(=O)O)Oc1cccc(CC(=O)O)c1 (stereo not drawn) [GGsTop]
[16]
  affinity_median (pKi): 3.77
[16]; [23]
  pKi: 3.77

## COC(=O)[C@H]1[C@@H](O)[C@@]2(O)c3c(OC)cc(O[C@@H]4O[C@@H]([C@H](O)CO)CO[C@H]4OC)cc3O[C@@]2(c2ccc(OC)cc2)[C@@H]1c1ccccc1 [Silvestrol]
[5]
  SI (CC50/IC50), EBOVΔVP30-GFP: 0.50
[10]
  pIC50: 7.70
[13]
  pIC50: 8.00

## CNC(=O)c1cc(Oc2ccc(NC(=O)Nc3ccc(Cl)c(C(F)(F)F)c3)cc2)ccn1 [Sorafenib]
[14]
  CC50: 12900 nM

## CN1CCN(CCCN2c3ccccc3Sc3ccc(C(F)(F)F)cc32)CC1 [Trifluoperazine]
[1]
  Antiviral effect against SARS-CoV-2 in Huh7.5.1 cells (in words): confirmed
[17]
  CETSA, thermal stability of TUBB: slightly affected the thermal stability of TUBB
[18]
  Architecture of the TUBB cytoskeletal networks (immunofluorescence): architecture of the TUBB cytoskeletal networks was disrupted
[5]
  SI (CC50/IC50), EBOVΔVP30-GFP: 2.18
[8]
  selectivity ratio: 10.7
[9]
  pIC50: 5.46
[10]
  pIC50: 5.75
[11]
  CC50 at 72 h: 7790 nM
[13]
  SI (CC50/IC50), ZIKV: 8.11
  pIC50: 6.02

## CC(=O)O[C@@]12CO[C@@H]1C[C@H](O)[C@@]1(C)C(=O)[C@H](O)C3=C(C)[C@@H](OC(=O)[C@H](O)[C@@H](NC(=O)OC(C)(C)C)c4ccccc4)C[C@@](O)([C@@H](OC(=O)c4ccccc4)[C@H]21)C3(C)C [docetaxel]
[19]
  ACT_VALUE, ACT_TYPE ID50: 6.699

## C=C1C[C@@H]2CC[C@@]34C[C@H]5O[C@H]6[C@@H](O3)[C@H]3O[C@H](CC[C@@H]3O[C@H]6[C@H]5O4)CC(=O)C[C@@H]3[C@@H](OC)[C@@H](C[C@H](O)CN)O[C@H]3C[C@H]3O[C@@H](CC[C@@H]1O2)C[C@@H](C)C3=C [eribulin]
[19]
  ACT_VALUE, ACT_TYPE IC50: 8.23

## COC1=C2C[C@@H](C)C[C@H](OC)[C@H](O)[C@@H](C)/C=C(\C)[C@H](OC(N)=O)[C@@H](OC)/C=C\C=C(/C)C(=O)NC(=CC1=O)C2=O [geldanamycin]
[20]
  affinity_median (pIC50): 6.55
  pIC50: 6.55

## CCNC(=O)c1noc(-c2cc(C(C)C)c(O)cc2O)c1-c1ccc(CN2CCOCC2)cc1 [luminespib]
[20]
  affinity_median (pIC50): 8.7
  pIC50: 8.70

## CC(=O)O[C@H]1C(=O)[C@@]2(C)[C@H]([C@H](OC(=O)c3ccccc3)[C@]3(O)C[C@H](OC(=O)[C@H](O)[C@@H](NC(=O)c4ccccc4)c4ccccc4)C(C)=C1C3(C)C)[C@]1(OC(C)=O)CO[C@@H]1C[C@@H]2O [paclitaxel]
[19]
  ACT_VALUE, ACT_TYPE EC50: 8.05

## COc1cc([C@@H]2c3cc4c(cc3[C@H](O)[C@H]3COC(=O)[C@H]23)OCO4)cc(OC)c1OC [podophyllotoxin]
[19]
  ACT_VALUE, ACT_TYPE IC50: 6

## COc1cc(O)c2c(=O)c(-c3ccc(O)cc3)coc2c1 [prunetin]
[21]
  affinity_median (pKi): 6.35
[21]; [23]
  pKi: 6.35

## CC[C@]1(O)C[C@@H]2CN(CCc3c([nH]c4ccccc34)[C@@](C(=O)OC)(c3cc4c(cc3OC)N(C)[C@H]3[C@@](O)(C(=O)OC)[C@H](OC(C)=O)[C@]5(CC)C=CCN6CC[C@]43[C@@H]65)C2)C1 [vinblastine]
[19]
  ACT_VALUE, ACT_TYPE IC50: 9

## C[C@@H](Nc1nc(N[C@H](C)C(F)(F)F)nc(-c2cccc(Cl)n2)n1)C(F)(F)F [vorasidenib]
[22]
  assay_description (result in words): Inhibits mutant IDH2.
